Like-named read-outs stand apart in the source and are kept apart here.
What was measured:
Assay type in all cases: in vivo
[1] = tested on: wild pansy (Viola tricolor L; VIOTR); assay: Postemergence herbicidal activity of mixtures on wild pansy
Description: (§1) Seeds of the desired test plant species were planted in Sun Gro MetroMix 306 planting mixture, which typically has a pH of 6.0 to 6.8 and an organic matter content of about 30 percent, in plastic pots with a surface area of 103.2 square centimeters (cm^2). When required to ensure good germination and healthy plants, a fungicide treatment and/or other chemical or physical treatment was applied. The plants were grown for 7-36 days (d) in a greenhouse with an approximate 14-hour (h) photoperiod which was maintained at about 18° C. during the day and 17° C. during the night. Nutrients and water were added on a regular basis and supplemental lighting was provided with overhead metal halide 1000-Watt lamps as necessary. The plants were employed for testing when they reached the second or third true leaf stage.
(§2) Treatments consisted of a cereal fungicide compound (as listed in Tables 1 through 34) and the cereal herbicide, 4-amino-3-chloro-6-(4-chloro-2-fluoro-3-methoxyphenyl)pyridine-2-carboxylic acid, alone and in combination. Weighed amounts of acid, esters (methyl) or salts (triethylammonium, TEA) of 4-amino-3-chloro-6-(4-chloro-2-fluoro-3-methoxyphenyl)pyridine-2-carboxylic acid (Compound I) were placed in 25 milliliter (mL) glass vials and dissolved in a volume of 97:3 volume-to-volume (v/v) acetone/dimethyl sulfoxide (DMSO) to obtain 4.5 milligrams active ingredient per milliliter (mg ai/mL) concentrated solutions. […] The concentrated solutions of Compound I were diluted to 1.5 mg ai/mL with the addition of 2 volumes of an aqueous mixture containing acetone, water, isopropyl alcohol, DMSO, Agri-dex crop oil concentrate, and Triton® X-77 surfactant in a 64.7:26.0:6.7:2.0:0.7:0.01 v/v ratio. A dilution solution was prepared by mixing 1 volume of 97:3 v/v acetone/DMSO and 2 volumes of an aqueous mixture containing acetone, water, isopropyl alcohol, DMSO, Agri-dex crop oil concentrate, and Triton® X-77 surfactant in a 64.7:26.0:6.7:2.0:0.7:0.01 v/v ratio. Compound requirements are based upon a 12 mL application volume at a rate of 187 liters per hectare (L/ha). The concentrated solutions of the cereal fungicides were prepared following the same procedure. Weighed amounts of fungicide were placed in 25 mL glass vials and dissolved in a volume of 97:3 v/v acetone/DMSO to obtain concentrated fungicide solutions. The concentrated solutions of the safener were prepared following the same procedure. Weighed amounts of safener were placed in 25 mL glass vials and dissolved in a volume of 97:3 v/v acetone/DMSO to obtain concentrated safener solutions.
(§3) Spray solutions of the cereal herbicide and the fungicidal compound mixtures were prepared by adding the concentrated solutions to the appropriate amount of dilution solution to form 12 mL spray solution with active ingredients in combinations. Spray solutions of the cereal herbicide, herbicide safener and the fungicidal compound mixtures were prepared by adding the concentrated solutions to the appropriate amount of dilution solution to form 12 mL spray solution with active ingredients in combinations.
(§4) Formulated compounds were applied to the plant material with an overhead Mandel track sprayer equipped with 8002E nozzles calibrated to deliver 187 L/ha over an application area of 0.503 square meters (m^2) at a spray height of 18 inches […] above average plant canopy. Control plants were sprayed in the same manner with the solvent blank.
(§5) The treated plants and control plants were placed in a greenhouse as described above and watered by sub-irrigation to prevent wash-off of the test compounds. After 20-22 d, the condition of the test plants as compared with that of the control plants was determined visually and scored on a scale of 0 to 100 percent where 0 corresponds to no injury and 100 corresponds to complete kill. […]

[2] = tested on: redroot pigweed (Amaranthus retroflexus L; AMARE); assay: Postemergence herbicidal activity of mixtures on redroot pigweed; conditions: for AMARE Ob (observed control): alone
Description: as §1, §2
(§6) Spray solutions of the cereal herbicide and the fungicidal compound mixtures were prepared by adding the concentrated solutions to the appropriate amount of dilution solution to form 12 mL spray solution with active ingredients in combinations. Spray solutions of the cereal herbicide, herbicide safener and the fungicidal compound mixtures were prepared by adding the concentrated solutions to the appropriate amount of dilution solution to form 12 mL spray solution with active ingredients in combinations. […]
as §5

[3] = tested on: Canada thistle (Cirsium arvense L; CIRAR); assay: Postemergence herbicidal activity of mixtures on Canada thistle; conditions: for CIRAR Ob (observed control): alone
Description: as §1, §2, §6, §5

[4] = tested on: lamb's-quarter (Chenopodium album L; CHEAL); assay: Postemergence herbicidal activity of mixtures on lamb's-quarter; conditions: for CHEAL Ob (observed control): alone
Description: as §1
as §2, with “The concentrated solutions of the safener were prepared following the same procedure. Weighed amounts of safener were placed in 25 mL glass vials and dissolved in a volume of 97:3 v/v acetone/DMSO to obtain concentrated safener solutions.” left out
as §5

[5] = tested on: chickweed (Stellaria media L; STEME); assay: Postemergence herbicidal activity of mixtures on chickweed; conditions: for STEME Ob (observed control): alone
Description: as §1
Treatments consisted of a cereal fungicide compound (as listed in Tables 1 through 34) and the cereal herbicide, 4-amino-3-chloro-6-(4-chloro-2-fluoro-3-methoxyphenyl)pyridine-2-carboxylic acid, alone and in combination. Weighed amounts of acid, esters (methyl) or salts (triethylammonium, TEA) of 4-amino-3-chloro-6-(4-chloro-2-fluoro-3-methoxyphenyl)pyridine-2-carboxylic acid (Compound I) were placed in 25 milliliter (mL) glass vials and dissolved in a volume of 97:3 volume-to-volume (v/v) acetone/dimethyl sulfoxide (DMSO) to obtain 4.5 milligrams active ingredient per milliliter (mg ai/mL) concentrated solutions. […] The concentrated solutions of Compound I were diluted to 1.5 mg ai/mL with the addition of 2 volumes of an aqueous mixture containing acetone, water, isopropyl alcohol, DMSO, Agri-dex crop oil concentrate, and Triton® X-77 surfactant in a 64.7:26.0:6.7:2.0:0.7:0.01 v/v ratio. […]
as §5

[6] = tested on: bird's-eye speedwell (Veronica persica L; VERPE); assay: Postemergence herbicidal activity of mixtures on bird's-eye speedwell; conditions: for VERPE Ob (observed control): alone
Description: as §1, §2, §3, §4, §5

[7] = tested on: Wheat; assay: Safening activity of herbicidal compositions on wheat (crop injury); conditions: for TRZAS Ob (observed injury): alone
Description: as §1, §2, §3, §4, §5

[8] = tested on: scented mayweed (Matricaria chamomila L; MATCH); assay: Postemergence herbicidal activity of mixtures on scented mayweed; conditions: for MATCH Ob (observed control): alone
Description: as §1, §2, §3, §4, §5

[9] = tested on: Russian thistle (Salsola iberica L; SASKR); assay: Postemergence herbicidal activity of mixtures on Russian thistle; conditions: for SASKR Ob (observed control): alone
Description: as §1, §2, §3, §4, §5

[10] = tested on: kochia (Kochia scoparia L; KCHSC); assay: Postemergence herbicidal activity of mixtures on kochia; parameters: KCHSC Ob: unit: %; conditions: for KCHSC Ob (observed control): alone
Description: as §1, §2, §3, §4, §5

[11] = tested on: Barley; assay: Safening activity of herbicidal compositions on barley (crop injury); conditions: for HORVS Ob (observed injury): alone
Description: as §1, §2, §3, §4, §5

CC(Cc1ccc(C(C)(C)C)cc1)CN1CCCCC1 (racemic) [Fenpropidin, (±)-1-[3-[4-(1,1-dimethylethyl)phenyl]-2-methylpropyl]piperidine]
pest or weed control at 562.5 g/ha ([1]; Viola tricolor, post-emergence, fungicide 562.5 g/ha alone, read-out: VIOTR Ob): 0%
AMARE Ob ([2]; fungicide 562.5 g/ha alone): 0%
CIRAR Ob ([3]; fungicide 562.5 g/ha alone): 0%
CHEAL Ob ([4]; fungicide 562.5 g/ha alone): 0%

FC(F)C(F)(F)OCC(Cn1cncn1)c1ccc(Cl)cc1Cl (racemic) [Tetraconazole, (±)-1-[2-(2,4-dichlorophenyl)-3-(1,1,2,2-tetrafluoroethoxy)propyl]-1H-1,2,4-triazole]
pest or weed control at 125 g/ha ([1]; Viola tricolor, post-emergence, alone, 125 g/ha, read-out: VIOTR Ob (observed control)): 0%
AMARE Ob (observed control) ([2]; 125 g/ha): 0%
CIRAR Ob (observed control) ([3]; 125 g/ha): 0%
CHEAL Ob (observed control) ([4]; 125 g/ha): 0%
STEME Ob (observed control) ([5]; 125 g/ha): 0%

CO/C=C(/C(=O)OC)c1ccccc1Oc1cc(Oc2ccccc2C#N)ncn1 [Azoxystrobin, methyl (αE)-2-[[6-(2-cyanophenoxy)-4-pyrimidinyl]oxy]-α-(methoxymethylene)benzeneacetate]
VERPE Ob ([6]; fungicide 250 g/ha): 0
TRZAS Ob ([7]; fungicide 250 g/ha): 0
pest or weed control at 62.5 g/ha ([8]; Matricaria, post-emergence, fungicide 62.5 g/ha alone, read-out: MATCH Ob): 0%
MATCH Ob ([8]; fungicide 250 g/ha): 0
pest or weed control at 62.5 g/ha ([1]; Viola tricolor, post-emergence, fungicide 62.5 g/ha alone, read-out: VIOTR Ob): 0%
pest or weed control at 62.5 g/ha ([9]; Salsola tragus, post-emergence, fungicide 62.5 g/ha alone, read-out: SASKR Ob): 0%
SASKR Ob ([9]; fungicide 250 g/ha): 0
pest or weed control at 62.5 g/ha ([10]; Bassia scoparia, post-emergence, fungicide 62.5 g/ha alone, read-out: KCHSC Ob): 0%
KCHSC Ob ([10]; fungicide 250 g/ha): 0
HORVS Ob ([11]; fungicide 250 g/ha): 0

O=C(O)COc1ccc(Cl)c2cccnc12 [Cloquintocet]
VERPE Ob ([6]; Cloquintocet 4.4 g/ha): 0
VERPE Ob ([6]; Cloquintocet 8.75 g/ha): 0
TRZAS Ob ([7]; Cloquintocet 4.4 g/ha): 0
TRZAS Ob ([7]; Cloquintocet 8.75 g/ha): 0
MATCH Ob ([8]; Cloquintocet 4.4 g/ha): 0
MATCH Ob ([8]; Cloquintocet 8.75 g/ha): 0
VIOTR Ob ([1]; Cloquintocet 4.4 g/ha): 0
VIOTR Ob ([1]; Cloquintocet 8.75 g/ha): 0
SASKR Ob ([9]; Cloquintocet 4.4 g/ha): 0
SASKR Ob ([9]; Cloquintocet 8.75 g/ha): 0
KCHSC Ob ([10]; Cloquintocet 4.4 g/ha): 0
KCHSC Ob ([10]; Cloquintocet 8.75 g/ha): 0
HORVS Ob ([11]; Cloquintocet 4.4 g/ha): 0
HORVS Ob ([11]; Cloquintocet 8.75 g/ha): 0

COc1c(Cl)ccc(-c2nc(C(=O)O)c(Cl)c(N)c2F)c1F [Compound I Acid]
VERPE Ob ([6]; Compound I Acid 35 g/ha): 72
TRZAS Ob ([7]; Compound I Acid 35 g/ha): 22
MATCH Ob ([8]; Compound I Acid 35 g/ha): 87
VIOTR Ob ([1]; Compound I Acid 35 g/ha): 60
SASKR Ob ([9]; Compound I Acid 35 g/ha): 89
KCHSC Ob ([10]; Compound I Acid 35 g/ha): 98
HORVS Ob ([11]; Compound I Acid 35 g/ha): 15

CC(C)NC(=O)N1CC(=O)N(c2cc(Cl)cc(Cl)c2)C1=O [Iprodione, 3-(3,5-dichlorophenyl)-N-(1-methylethyl)-2,4-dioxo-1-imidazolidine=carboxamide]
pest or weed control at 750 g/ha ([1]; Viola tricolor, post-emergence, fungicide 750 g/ha alone, read-out: VIOTR Ob): 0%
AMARE Ob ([2]; fungicide 750 g/ha alone): 0%
CIRAR Ob ([3]; fungicide 750 g/ha alone): 0%

CO/C=C(/C(=O)OC)c1ccccc1COc1cccc(C(F)(F)F)n1 [Picoxystrobin, methyl (E)-(α)-(methoxymethylene)-2-[[[6-(trifluoromethyl)-2-pyridinyl]oxy]methyl]benzeneacetate]
VIOTR Ob ([1]; fungicide 250 g/ha alone): 0%
AMARE Ob ([2]; fungicide 250 g/ha alone): 0%
CIRAR Ob ([3]; fungicide 250 g/ha alone): 0%
CHEAL Ob ([4]; fungicide 250 g/ha alone): 0%
STEME Ob ([5]; fungicide 250 g/ha alone): 0%

CC(C)(C)C(O)(CCc1ccc(Cl)cc1)Cn1cncn1 (stereo not drawn) [Tebuconazole, α-[2-(4-chlorophenyl)ethyl]-α-(1,1-dimethylethyl)-1H-1,2,4-triazole-1-ethanol]
VERPE Ob (observed control) ([6]; 31.25 g/ha): 0%
VERPE Ob (observed control) ([6]; 62.5 g/ha): 0%
VERPE Ob (observed control) ([6]; 250 g/ha): 0%
VERPE Ob ([6]; fungicide 250 g/ha): 0
TRZAS Ob (observed injury) ([7]; 62.5 g/ha): 0%
TRZAS Ob (observed injury) ([7]; 250 g/ha): 0%
TRZAS Ob ([7]; fungicide 250 g/ha): 0
MATCH Ob (observed control) ([8]; 31.25 g/ha): 0%
MATCH Ob (observed control) ([8]; 62.5 g/ha): 0%
MATCH Ob (observed control) ([8]; 250 g/ha): 0%
MATCH Ob ([8]; fungicide 250 g/ha): 0
pest or weed control at 31.25 g/ha ([1]; Viola tricolor, post-emergence, alone, 31.25 g/ha, read-out: VIOTR Ob (observed control)): 0%
pest or weed control at 62.5 g/ha ([1]; Viola tricolor, post-emergence, alone, 62.5 g/ha, read-out: VIOTR Ob (observed control)): 0%
pest or weed control at 250 g/ha ([1]; Viola tricolor, post-emergence, alone, 250 g/ha, read-out: VIOTR Ob (observed control)): 0%
VIOTR Ob ([1]; fungicide 250 g/ha): 0
SASKR Ob (observed control) ([9]; 31.25 g/ha): 0%
SASKR Ob (observed control) ([9]; 62.5 g/ha): 0%
SASKR Ob (observed control) ([9]; 250 g/ha): 0%
SASKR Ob ([9]; fungicide 250 g/ha): 0
KCHSC Ob (observed control) ([10]; 31.25 g/ha): 0%
KCHSC Ob (observed control) ([10]; 62.5 g/ha): 0%
KCHSC Ob (observed control) ([10]; 250 g/ha): 0%
KCHSC Ob ([10]; fungicide 250 g/ha): 0
HORVS Ob (observed injury) ([11]; 62.5 g/ha): 0%
HORVS Ob (observed injury) ([11]; 250 g/ha): 0%
HORVS Ob ([11]; fungicide 250 g/ha): 0

COC(=O)NC(=S)Nc1ccccc1NC(=S)NC(=O)OC [Thiophanate-methyl, dimethyl[1,2-phenylenebis(iminocarbonothioyl)]bis[carbamate]]
pest or weed control at 750 g/ha ([1]; Viola tricolor, post-emergence, alone, 750 g/ha, read-out: VIOTR Ob (observed control)): 0%
AMARE Ob (observed control) ([2]; 750 g/ha): 0%
CIRAR Ob (observed control) ([3]; 750 g/ha): 0%
CHEAL Ob (observed control) ([4]; 750 g/ha): 0%
STEME Ob (observed control) ([5]; 750 g/ha): 0%

— patent publication US9101136B2, “Synergistic herbicide/fungicide composition containing certain pyridine carboxylic acids and certain fungicides” (Dow AgroSciences LLC, priority 2010, dated 2015)
